Reference: patent publication US20260226470A1, “HEPATITIS B COMBINATION THERAPIES” (Aligos Therapeutics, Inc., priority 2023, published 2026)
Oligonucleotides are written 5' to 3', each unit as a sugar letter and its base; * is a phosphorothioate linkage, no mark a phosphodiester; rarer units and linkages stand in square brackets, end groups in braces. Plain capitals give the bases only. m = 2'-O-methyl; f = 2'-fluoro

How the values were obtained:
HBV = assay: siRNA treatment followed by CAM add-on, in vivo in mice, Example 3; conditions: FIGS. 13A-13B, 16A-16B; CAM 30 mpk BID day 63-98; siRNA-2 10 mpk SC QW day 0-98
Protocol: In the following example, initial treatment with an siRNA, followed by CAM add-on, was tested in vivo in mice.
The study design is described below in Table 9.
QW dosing of siRNA-2 was continued until the end of the study (day 98). HBV DNA, HBsAg, and HBeAg were measured weekly through day 98.

[1] = tested on: adeno-associated virus-hepatitis B virus (AAV-HBV) mice; assay: In vivo compound efficacy in AAV-HBV mice, Example 1 (Compound 1 and siRNA-1); set-up: species or system Mouse: C57BL/6; conditions: plasma, follow-up to Day 189
Protocol: In vivo compound efficacy was evaluated in adeno-associated virus-hepatitis B virus (AAV-H-BV) mice. Materials and methods are presented below in tables 1-4. Table F describes the nucleic acid sequences used for siRNA-1, an siRNA. The sequences are described using modified nucleotide annotations found in Table B.
Live Phase Parameters: Based on plasma viral markers levels and body weight, 20 mice were selected and randomized into five groups for treatment. Checks were made for dead and/or moribund animals daily. Overt changes were recorded. Body weight was measured twice weekly during Day 0-97, and once weekly during Day 98-189.
Vehicle (Group 01) and Compound 1 at 55 mg/kg/dose (Groups 02, 04 and 05) were administered by oral gavage twice daily during Day 0-97. siRNA-1 at 5 mg/kg/dose was injected subcutaneously on Days 0, 14, 42 and 70 for Groups 03 and 04, and on Days 70, 84, and 102 for Group 05.
Plasma samples of 50 μL per mouse were prepared once weekly prior to dosing during Day 0-189. The samples were used for quantitative detections of HBsAg, HBeAg, and HBV DNA. Mice were sacrificed on Day 189.

In the case of `C=C[C@H](C)Nc1nc2c(c(=O)n1-c1ccc(C(=O)NC)cc1)C[C@@H](C)N(C(=O)c1ccc(Br)c(C(F)(F)F)c1)C2` [Compound 2, 4-((R)-7-(4-bromo-3-(trifluoromethyl)benzoyl)-2-(((S)-but-3-en-2-yl)amino)-6-methyl-4-oxo-5,6,7,8-tetrahydropyrido[3,4-d]pyrimidin-3(4H)-yl)-N-methylbenzamide], the “reduction of HBV DNA” value (HBV) is reported as “good reduction of HBV DNA”.

For “siRNA-1: siRNA with SEQ ID NO: 2 (Sense) and SEQ ID NO: 3 (Antisense), modified nucleotides per Table B (sense mC*mC*mGmUfGmUfGfCfAmCmUmUmCmGmCmUmUmCmA; antisense mU*fG*mAmAfGmCmGfAmAmGmUmGmCfAmCmAfCmGmG*mU*mC)”, the “HBsAg effect after end of treatment (sustained or rebound)” value ([1]; FIGS. 3A-3B) was “rebound is observed” and the “HBeAg effect after end of treatment (sustained or rebound)” value ([1]; FIGS. 4A-4B) was “rebound is observed”.
